ChEMBL document CHEMBL3885881, “DrugMatrix”

Species on record: Rattus norvegicus
Experiment: DrugMatrix - Regimen: Daily Repeat
Format: toxicity, organism-based, Sprague-Dawley
Parameters: regimen Daily Repeat, gender Male, age 6-8 weeks
Conditions: in vivo, po, route oral GAVAGE, vehicle .5 % CMC; for BASOPHIL / EOSINOPHIL / ERYTHROCYTE COUNT / HEMATOCRIT / HEMOGLOBIN / LYMPHOCYTE / MEAN CORPUSCULAR HEMOGLOBIN / MEAN CORPUSCULAR HEMOGLOBIN CONCENTRATION / MEAN CORPUSCULAR VOLUME / MONOCYTE / NEUTROPHIL / PLATELET COUNT: tissue Blood; for ALANINE AMINOTRANSFERASE / ALBUMIN / ALKALINE PHOSPHATASE / ASPARTATE AMINOTRANSFERASE / BLOOD UREA NITROGEN / CHOLESTEROL / CREATINE PHOSPHOKINASE / CREATININE / GLUCOSE / PHOSPHORUS / POTASSIUM / SODIUM / TOTAL BILIRUBIN / TOTAL PROTEIN: tissue Plasma
[1] = 0 mg/kg, 72 h, dose level Control, time 3 day
[2] = 0 mg/kg, 120 h, dose level Control, time 5 day
[3] = 20 mg/kg, 72 h, dose level Low, time 3 day
[4] = 20 mg/kg, 120 h, dose level Low, time 5 day

CN(C)CCC=C1c2ccccc2COc2ccccc21 [DOXEPIN] was tested, and the BASOPHIL [1] was 0%, the EOSINOPHIL [1] was 0.33% and the “ERYTHROCYTE COUNT” value [1] was 6.2 x10E6/uL. It also gave an HEMATOCRIT [1] of 38.08%, an HEMOGLOBIN [1] of 14.92 G/DL and an LYMPHOCYTE [1] of 76%. For the same compound, the “MEAN CORPUSCULAR HEMOGLOBIN” value [1] was 24.1 pg, the “MEAN CORPUSCULAR HEMOGLOBIN CONCENTRATION” value [1] was 39.17 G/DL and the “MEAN CORPUSCULAR VOLUME” value [1] was 61.48 fL. For the same compound, the MONOCYTE [1] was 3.83%, the NEUTROPHIL [1] was 19.83% and the “PLATELET COUNT” value [1] was 1327.5 x10E3/uL. The “ALANINE AMINOTRANSFERASE” value [1] was 40.17 u/L, the ALBUMIN [1] was 4.07 G/DL and the “ALKALINE PHOSPHATASE” value [1] was 372 u/L. The “ASPARTATE AMINOTRANSFERASE” value [1] was 67.17 u/L, the “BLOOD UREA NITROGEN” value [1] was 18.83 mg/dL and the CHOLESTEROL [1] was 78.17 mg/dL. For the same compound, the “CREATINE PHOSPHOKINASE” value [1] was 149.17 u/L, the CREATININE [1] was 0.57 mg/dL and the GLUCOSE [1] was 185.17 mg/dL. It also gave a PHOSPHORUS [1] of 11.43 mg/dL, a POTASSIUM [1] of 6.78 MEQ/L and an SODIUM [1] of 152.83 MEQ/L. For the same compound, the “TOTAL BILIRUBIN” value [1] was 0.4 mg/dL, the “TOTAL PROTEIN” value [1] was 6.87 G/DL and the BASOPHIL [2] was 0%. For the same compound, the EOSINOPHIL [2] was 0%, the “ERYTHROCYTE COUNT” value [2] was 6.05 x10E6/uL and the HEMATOCRIT [2] was 36.55%. For the same compound, the HEMOGLOBIN [2] was 14.7 G/DL, the LYMPHOCYTE [2] was 86.83% and the “MEAN CORPUSCULAR HEMOGLOBIN” value [2] was 24.37 pg. The “MEAN CORPUSCULAR HEMOGLOBIN CONCENTRATION” value [2] was 40.32 G/DL, the “MEAN CORPUSCULAR VOLUME” value [2] was 60.47 fL and the MONOCYTE [2] was 0.83%. For the same compound, the NEUTROPHIL [2] was 12.33%, the “PLATELET COUNT” value [2] was 1177 x10E3/uL and the “ALANINE AMINOTRANSFERASE” value [2] was 41.83 u/L. For the same compound, the ALBUMIN [2] was 3.75 G/DL, the “ALKALINE PHOSPHATASE” value [2] was 377.5 u/L and the “ASPARTATE AMINOTRANSFERASE” value [2] was 60.83 u/L. The “BLOOD UREA NITROGEN” value [2] was 16 mg/dL, the CHOLESTEROL [2] was 67.83 mg/dL and the “CREATINE PHOSPHOKINASE” value [2] was 120.33 u/L. For the same compound, the CREATININE [2] was 0.6 mg/dL, the GLUCOSE [2] was 167.67 mg/dL and the PHOSPHORUS [2] was 10.03 mg/dL. For the same compound, the POTASSIUM [2] was 6.68 MEQ/L, the SODIUM [2] was 150.5 MEQ/L and the “TOTAL BILIRUBIN” value [2] was 0.57 mg/dL. For the same compound, the “TOTAL PROTEIN” value [2] was 6.25 G/DL, the BASOPHIL [3] was 0% and the EOSINOPHIL [3] was 0%. The “ERYTHROCYTE COUNT” value [3] was 5.9 x10E6/uL, the HEMATOCRIT [3] was 36.4% and the HEMOGLOBIN [3] was 14.15 G/DL. The LYMPHOCYTE [3] was 83%, the “MEAN CORPUSCULAR HEMOGLOBIN” value [3] was 24 pg and the “MEAN CORPUSCULAR HEMOGLOBIN CONCENTRATION” value [3] was 38.9 G/DL. The “MEAN CORPUSCULAR VOLUME” value [3] was 61.75 fL, the MONOCYTE [3] was 0% and the NEUTROPHIL [3] was 17%. For the same compound, the “PLATELET COUNT” value [3] was 1287.5 x10E3/uL, the “ALANINE AMINOTRANSFERASE” value [3] was 38.33 u/L and the ALBUMIN [3] was 3.6 G/DL. The “ALKALINE PHOSPHATASE” value [3] was 352.33 u/L, the “ASPARTATE AMINOTRANSFERASE” value [3] was 56.67 u/L and the “BLOOD UREA NITROGEN” value [3] was 11.67 mg/dL. The CHOLESTEROL [3] was 72.67 mg/dL, the “CREATINE PHOSPHOKINASE” value [3] was 139.33 u/L and the CREATININE [3] was 0.53 mg/dL. For the same compound, the GLUCOSE [3] was 179.67 mg/dL, the PHOSPHORUS [3] was 11.8 mg/dL and the POTASSIUM [3] was 6.33 MEQ/L. For the same compound, the SODIUM [3] was 150 MEQ/L, the “TOTAL BILIRUBIN” value [3] was 0.2 mg/dL and the “TOTAL PROTEIN” value [3] was 5.83 G/DL. The BASOPHIL [4] was 0%, the EOSINOPHIL [4] was 0% and the “ERYTHROCYTE COUNT” value [4] was 6.16 x10E6/uL. For the same compound, the HEMATOCRIT [4] was 37.07%, the HEMOGLOBIN [4] was 14.67 G/DL and the LYMPHOCYTE [4] was 91.67%. The “MEAN CORPUSCULAR HEMOGLOBIN” value [4] was 23.87 pg, the “MEAN CORPUSCULAR HEMOGLOBIN CONCENTRATION” value [4] was 39.57 G/DL and the “MEAN CORPUSCULAR VOLUME” value [4] was 60.23 fL. For the same compound, the MONOCYTE [4] was 0.33%, the NEUTROPHIL [4] was 8% and the “PLATELET COUNT” value [4] was 1231.33 x10E3/uL. For the same compound, the “ALANINE AMINOTRANSFERASE” value [4] was 36 u/L, the ALBUMIN [4] was 3.67 G/DL and the “ALKALINE PHOSPHATASE” value [4] was 311.33 u/L. For the same compound, the “ASPARTATE AMINOTRANSFERASE” value [4] was 55.67 u/L, the “BLOOD UREA NITROGEN” value [4] was 12.67 mg/dL and the CHOLESTEROL [4] was 71.33 mg/dL. The “CREATINE PHOSPHOKINASE” value [4] was 153 u/L, the CREATININE [4] was 0.6 mg/dL and the GLUCOSE [4] was 161.33 mg/dL. For the same compound, the PHOSPHORUS [4] was 12.47 mg/dL, the POTASSIUM [4] was 6.8 MEQ/L and the SODIUM [4] was 151.67 MEQ/L. For the same compound, the “TOTAL BILIRUBIN” value [4] was 0.43 mg/dL and the “TOTAL PROTEIN” value [4] was 6.17 G/DL.
